Read-outs that look alike come from different tables or passages of the source.
Assays:
[1] = system: intracellular forms of T. cruzi (Y strain) in 3D H9C2; test: Activity against T. cruzi (Y strain) infection of H9C2 spheroids (3D); assay type: cell-based, Trypanosoma cruzi; conditions: 10 µM, seven days of incubation, 95% confidence interval in brackets
From the text: (§1) L929 cell lines were used to evaluate the effect of the nucleoside derivatives on the cellular viability of mammalian host cells and to assess their activity against intracellular forms of T. cruzi (Tulahuen strain expressing E. coli β-galactosidase gene, DTU VI) as reported. 2D and 3D culture systems of rat cardiomyoblast cell lines (H9C2(2-1)) were used to evaluate cardiotoxicity and to test the derivatives’ activity on intracellular forms (Y strain, DTU II). In all assays, the cell cultures were maintained at 37 °C under an atmosphere of 5% CO2.
(§2) Bloodstream trypomastigotes of the Y strain (DTU II) were obtained by cardiac puncture of infected Swiss Webster mice on the parasitemia peak to perform drug sensitivity assays. Trypomastigote forms of the Tulahuen-β gal strain were collected from the supernatant of previously infected L929 cell cultures (host/parasite cell ratio 10:1). The intracellular forms T. cruzi were studied by the infection of L929 and H9C2 (2D and 3D) cell cultures infected for 48 and 24 h with trypomastigotes of Tulahuen-β gal and Y strains, respectively. The Leishmania mexicana-Cas9 T7 strain (LmexCas9) was derived from L. mexicana WT promastigotes by expression of the Streptococcus pyogenes Cas9 nuclease gene ‘Cas9′ and maintained on 32 μg/mL hygromycin [51]. This strain and the derived strains Cas9^ΔNT1 and Cas9^ΔNT1+TcrNT2 were cultured in HOMEM medium supplemented with 10% of FBS and 1% Penicillin-Streptomycin antibiotic in unvented flasks at 25 °C [52]. The Cas9^ΔNT1 strain is identical to Cas9 except that the LmexNT1.1/NT1.2 locus encoding the L. mexicana adenosine/ pyrimidine transporters was excised using Cas9 [17, 40]. Cas9^ΔNT1+TcrNT2 is the further modification of that strain by the expression of the T. cruzi nucleoside transporter 2 (TcrNT2) gene in it, using the vector pNUS-HcN [53]. Appropriate antibiotics were added for the selection and maintenance of transfectants.
3D cultures of H9C2 cells were obtained as described, and 24 h after plating, the spheroids were infected (or not, control) with bloodstream trypomastigotes of T. cruzi (strain Y), using 20 parasites per host cell. After 24 h, infected spheroids were incubated with 10 µM of the tested compounds for seven days, and then the spheroids were transferred one by one to an Eppendorf tube, with the aid of a pestle they were mechanically macerated following an established protocol with minor adaptations. The parasite load was quantified by light microscopy and qPCR [54], and the results were expressed as % of parasite death. The data results from two independent experiments performed in at least duplicate.

[2] = system: promastigotes of LmexCas9; test: Resazurin-based assay on LmexCas9 promastigotes; assay type: cell-based, Leishmania mexicana
Description: as §2
The EC50 values for nucleoside analogues against Leishmania mexicana promastigotes of the Cas9, Cas9^ΔNT1 and Cas9^ΔNT1+TcrNT2 strains used a resazurin-based assay, as described. Briefly, the assays were performed in standard HOMEM medium and culture conditions, in white opaque 96-well plates. For each test compound (stored as a 40 mM stock solution in 100% DMSO at −20 °C), a doubling dilution was performed over 2 rows of the plate, keeping the last well free as no-drug control with HOMEM only (23 doubling dilutions; highest concentration 100 µM). To each well, 100 µL of HOMEM containing 2 × 10^5 cells of the appropriate L. mexicana line was added, and the plates incubated for 72 h at 25 °C, followed by the addition of 20 µL of resazurin solution and further incubation for 48 h. Fluorescence was read on a FLUOstar OPTIMA plate reader (BMG Labtech, Germany), at an excitation wavelength of 544 nm and an emission wavelength of 620 nm. The EC50 values were determined by the GraphPad Prism 8.0 software using an equation for a sigmoid curve with variable slope. Pentamidine was used as positive control, and every experiment was independently performed at least 3 times independently.

H9C2 3D cultures = test: Cardiotoxicity on H9C2 organoids (3D), PrestoBlue; assay type: cell-based, rat; conditions: 95% confidence interval in brackets
From the text: as §1
(§3) L929 cells seeded in sterile 96-well microtiter plates were exposed or not to increasing concentrations (up to 200 µM) of the compounds. After seven days of incubation, the cell growth of treated cultures was compared to untreated control cells (100% cell growth). Cellular viability was assessed through AlamarBlue® (resazurin sodium salt) colorimetric assay, and the results were expressed as % reduction in cell growth/viability compared to untreated control, and an IC50 value determined. For the assays using H9C2 cultures, 25 × 10^3 cells/well were seeded in a 96-well microtiter plates (flat and U bottoms, precoated with agarose 1% for preparing 2- and 3D matrices, respectively) and maintained at 37 °C [48, 54].
The cardiac cultures were exposed or not to increasing concentrations of the nucleoside derivatives (up to 300 µM), and after seven days of incubation, their physiology and morphology was evaluated by light microscopy. Cell viability was measured using the PrestoBlue® (PB) colorimetric assay, the results evaluated as % reduction in cell growth/viability compared to untreated control, and an IC50 value determined. The data results from at least two independent experiments done in at least duplicates.

L929 cells = test: Toxicity on L929 cells (AlamarBlue); assay type: cell-based; conditions: Mus musculus, L929, 168 h; seven days of compound incubation; 95% confidence interval in brackets
From the text: as §1, §3

H9C2 2D cultures = test: Cardiotoxicity on H9C2 monolayers (2D), PrestoBlue; assay type: cell-based; conditions: Rattus norvegicus
From the text: as §1
as §3, with “After seven days of incubation, the cell growth of treated cultures was compared to untreated control cells (100% cell growth).” left out
[…] Cell viability was measured using the PrestoBlue® (PB) colorimetric assay, the results evaluated as % reduction in cell growth/viability compared to untreated control, and an IC50 value determined. The data results from at least two independent experiments done in at least duplicates.

[3] = Leishmania mexicana, read-out: Cas9 EC50 (μM), promastigotes, resazurin-based assay, highest concentration 100 µM
[4] = Rattus norvegicus, H9c2, 168 h, read-out: Cardiotoxic profile IC50 (µM) 3D, 3D H9C2, seven days of compound incubation
[5] = H9c2, 24 h, read-out: H9C2 IC50 µM
[6] = H9c2, 168 h, read-out: Cardiotoxic profile IC50 (µM) 2D
[7] = read-out: Cardiotoxic profile IC50 (µM) 3D, 3D H9C2, seven days of compound incubation

Row | SMILES | % of Death Rate by Light Microscopy Quantification 3D [1] | % of Death Rate by qPCR 3D [1] | EC50 [2, 3] [µM] | IC50 (H9C2 3D cultures; [4]) [µM] | IC50 (L929 cells) [µM] | IC50 (H9C2 2D cultures; [5]) [µM] | IC50 (H9C2 2D cultures; [6]) [µM] | EC50 ([2]; read-out: Cas9 EC50, promastigotes, resazurin-based assay, highest concentration 100 µM) [µM] | IC50 (H9C2 3D cultures; [7]) [µM]
1 | Nc1ncnc2c1c(-c1ccc(F)c(F)c1)cn2[C@@H]1O[C@H](CO)[C@@H](O)[C@H]1O [FH11706, 7-(3,4-Difluorophenyl)tubercidin] | 91.6 (86.2 to 97) % | 85 (79 to 91) % | > 100 | > 200 | 118 | > 300 | 47.7 | – | –
2 | O=C(Cn1ccnc1[N+](=O)[O-])NCc1ccccc1 [Bz, Benznidazole, reference compound] | 98.4 (98.1 to 98.7) % | 100% | – | > 200 | > 200 | > 300 | > 200 | – | –
3 | Nc1ncnc2c1c(-c1ccc(Cl)c(Cl)c1)cn2[C@@H]1O[C@H](CO)C[C@H]1O [FH8513, 7-(3,4-dichlorophenyl)-3′-deoxytubercidin] | 83.8 (67.5 to 100) % | 94 (90 to 98) % | ~100 | 199 | 22.3 | 268 | 18.6 | > 100 | 200
4 | Nc1ncnc2c1c(-c1ccc(Cl)c(F)c1)cn2[C@@H]1O[C@H](CO)[C@@H](O)[C@H]1O [FH10714, 7-(3-fluoro,4-chlorophenyl)tubercidin] | 93.5 (93.46 to 93.54) % | 67 (38 to 96) % | > 100 | 180 | 55.8 | > 300 | 41.8 | – | 181

— publication PMC9695592, “Phenotypic Evaluation of Nucleoside Analogues against Trypanosoma cruzi Infection: In Vitro and In Vivo Approaches” (Molecules, 2022)
